Test results published in patent US9696306B2, “Methods of reducing levels of tau” (The Trustees of Columbia University in the City of New York, priority 2011, dated 2017).
Counter-ions that a name gives are not always drawn.

system: Aβ40; test: Screen of NIH clinical collection compounds for reduction of Aβ40 in Tg2576 mES cell derived neurons (Aβ40 ELISA); format: cell-based, mouse; set-up: Percent Inhibition: concentration or dose not given beside the values; conditions: Aβ40 in conditioned media vs DMSO control; neurons treated on day 8 after plating for 24 hours
Protocol: In certain embodiments, the inhibitor of the present invention is identified by an assay directed to detecting inhibitors of Aβ40 production. For example, but not by way of limitation, such assays can include assays such as those prepared as follows. First, mouse ES cells isolated from Tg2576 mice are subjected to directed differentiation as previously described. After dissociation of embryoid bodies, neurons are plated in poly-D-lysine and laminin coated 96 well black plates at a density of 1.5×10^5 cells/cm2 which is 45,000 cells/well. Media is changed to N2 containing media after 4 hours and again the next day after plating. Two days after plating, media is changed to B27 containing media which is replaced every 2 days after that. On day 8 after plating the mouse ES derived neurons are treated with the compound of interest. […] In certain embodiments the compounds are incubated with the cells for 24 hours in 150 μl B27 media. In certain embodiments each plate of ES derived neurons is treated with NCC compounds, DMSO (negative control), and the positive controls for Aβ reduction BACE inhibitor IV (Calbiochem) and Compound E. After 24 hours, 100 μl conditioned media can then be removed and frozen at −80° C. until further analysis for Aβ40 content. The remaining cells in 50 μl media can be subjected to cell viability assay CellQuanti Blue (BioAssay Systems). In certain embodiments, conditioned media can be subjected to Aβ40 quantification, e.g., by using Aβ40 ELISA (Invitrogen).
Mouse ES cells isolated from. Tg2576 mice were subjected to directed differentiation as previously described. After dissociation of embryoid bodies, neurons were plated in poly-D-lysine and laminin coated 96 well black plates at a density of 1.5×10^5 cells/cm2 which is 45,000 cells/well. Media was changed to N2 containing media after 4 hours and again the next day after plating. Two days after plating, media was changed to B27 containing media which was replaced every 2 days after that. […] Each plate of ES derived neurons was treated with NCC compounds, DMSO (negative control), and the positive controls for Aβ reduction BACE inhibitor IV (Calbiochem) and Compound E. After 24 hours, 100 μl conditioned media was removed and frozen at −80° C. until further analysis for Aβ40 content. The remaining cells in 50 μl media were subjected to cell viability assay CellQuanti Blue (BioAssay Systems). Conditioned media was subjected to Aβ40 quantification using Aβ40 ELISA (Invitrogen). Compounds which lowered Aβ40 levels in the conditioned media were identified as hits if they reduced Aβ40 by 4 standard deviations of the negative control (DMSO) but maintained cell viability. Cell viability was defined by CellQuanti Blue fluorescent signal maintained within two standard deviations of fluorescent signal from the control treated (DMSO) cells. High potency hits were defined by reducing Aβ40 40% or more (signal 60% of DMSO control).
Hits were defined as lowering Aβ by 4 standard deviations below the negative control (DMSO) treated condition but maintaining cell viability within 2 standard deviations of control.

In order of falling “Percent Inhibition” value:
1. NNCCc1ccccc1 [phenelzine sulfate]  70%
2. salbutamol sulfate  70%
3. CN1C2CC(OC(=O)C(CO)c3ccccc3)CC1C1OC12 (stereo not drawn) [benzeneacetic acid, alpha-(hydroxymethyl)-, 9-methyl-3-oxa-9-azatricyclo[3,3,1,2,4]non-7-yl ester]  67%
4. Oc1ccc2c3c1O[C@H]1c4[nH]c5ccccc5c4C[C@@]4(O)[C@@H](C2)N(CC2CC2)CC[C@]314 [naltrindole]  66%
5. COc1cc(CNC(=O)CCCC/C=C/C(C)C)ccc1O [capsaicin]  62%
6. COc1ccc(-c2oc3c(CC=C(C)C)c(O[C@@H]4O[C@H](CO)[C@@H](O)[C@H](O)[C@H]4O)cc(O)c3c(=O)c2O[C@@H]2O[C@@H](C)[C@H](O)[C@@H](O)[C@H]2O)cc1 [icariin]  53%
7. O[C@@H]1CCCC[C@H]1N1CCC(c2ccccc2)CC1 [vesamicol hcl]  52%
8. c1cncc([C@@H]2CCCN2)c1 [nornicotine]  50%
9. COc1cc(-c2ccc(=O)[nH]n2)ccc1OC(F)F [pyridazinone, 6-[4-difluoromethoxy)-3-methoxyphenyl]]  50%
10. Cl.Nc1c2c(nc3c1CCC3)CCCC2 [amiridine, cyclopenta[b]quinolin-9-amine, 2,3,5,6,7,8-hexahydro-,monohydrochloride]  40%
11. O=C1N(c2ccccc2)c2ccccc2C1(Cc1ccncc1)Cc1ccncc1 [2h-indol-2-one,1,3-dihydro-1-phenyl-3,3-bis(4-pyridinylmethyl)]  22%
12. CC[C@H]1OC(=O)[C@H](C)[C@@H](O[C@H]2C[C@@](C)(OC)[C@@H](O)[C@H](C)O2)[C@H](C)[C@@H](O[C@@H]2O[C@H](C)C[C@H](N(C)C)[C@H]2O)[C@](C)(OC)C[C@@H](C)C(=O)[C@H](C)[C@@H](O)[C@]1(C)O [clarithromycin]  22%
13. O=C(NCCN1CCOCC1)c1ccc(Cl)cc1 [4-chloro-n-(2-morpholin-4-yl-ethyl)-benzamide]  21%
14. CC(=O)O[C@]1(C(C)=O)CC[C@H]2[C@@H]3C=C(C)C4=CC(=O)CC[C@]4(C)[C@H]3CC[C@@]21C [megestrol acetate]  20%
15. gabexate mesylate  20%
16. medroxyprogesterone  20%
17. C=CC1=C(C(=O)O)N2C(=O)[C@@H](NC(=O)/C(=N\OCC(=O)O)c3csc(N)n3)[C@H]2SC1 [cefixime]  19%
18. O=[N+]([O-])c1cccc2cn[nH]c12 [7-nitroindazole]  17%
19. CC(Oc1c(Cl)cccc1Cl)C1=NCCN1 (stereo not shown) [lofexidine]  17%
20. C[C@@H](N=C(NC#N)Nc1ccncc1)C(C)(C)C [pinacicil]  17%
21. CO[C@@H]1[C@@H](O[C@@H]2O[C@H](C)[C@@H](O[C@H]3C[C@@](C)(O)[C@@H](OC(=O)CC(C)C)[C@H](C)O3)[C@H](N(C)C)[C@H]2O)[C@@H](CC=O)C[C@@H](C)[C@@H](O)/C=C/C=C/C[C@@H](C)OC(=O)C[C@H]1O [kitasamycin]  16%
22. C[C@@H]1C[C@H]2[C@@H]3C[C@H](F)C4=CC(=O)C(Cl)=C[C@]4(C)[C@@]3(F)[C@@H](O)C[C@]2(C)[C@@]1(O)C(=O)CO [halometasone]  14%
23. COc1cc(OC)c(C(=O)CCCN2CCCC2)c(OC)c1 [buflomedil]  13%
24. CN1C(=O)CN=C(c2ccccc2)c2cc([N+](=O)[O-])ccc21 [nimetanzepam]  13%
25. Cc1ncc([N+](=O)[O-])n1CC(C)O (stereo not shown) [1-(2-methyl-5-nitro-imidazol-1-yl)-propan-2-ol]  12%
26. CS(=O)(=O)c1ccc(C2=C(c3ccccc3)C(=O)OC2)cc1 [rofecoxib]  12%
27. CC(=O)OCC(=O)NCCCOc1cccc(CN2CCCCC2)c1 [roxatidine acetate]  12%
28. O=C(O)C(Cl)Cl [dichloroacetic acid]  11.5%
29. CN1C(=O)CN=C(c2ccccc2)c2cc(Cl)ccc21 [diazepam]  11%
30. Nc1nc(O)c2ncn(CCC(CO)CO)c2n1 [peniciclovir]  11%
31. OC[C@H]1O[C@@H](Oc2cc(O)cc(/C=C/c3ccc(O)cc3)c2)[C@H](O)[C@@H](O)[C@@H]1O [piceid]  11%
32. Cc1nc2ccccn2c(=O)c1CCN1CCC(C(=O)c2ccc(F)cc2)CC1 [pirenperone]  11%
33. CN(C)CCc1c[nH]c2ccc(Cn3cncn3)cc12 [rizatriptan benzoate]  10%
34. CN1C(C(=O)Nc2ccccn2)=C(O)c2ccccc2S1(=O)=O [piroxicam]  9.5%
35. C[N+]1(C)CCN(c2ccccc2)CC1.[I-] [1,1,-dimethyl-4-phenylpiperazinium iodide]  9%
36. CC(C(=O)O)c1ccc(CC2CCCC2=O)cc1 (stereo not shown) [loxoprofen]  9%
37. Cc1ncc([N+](=O)[O-])n1CC(O)CCl (stereo not shown) [orinidazole]  9%
38. CNS(=O)(=O)Cc1ccc2[nH]cc(CCN(C)C)c2c1 [sumatriptan succinate]  8%

same assay, conditions: Aβ40 lowering; high priority hits confirmed from independent compound sources; read-out: IC50

In the case of `Cl.Nc1c2c(nc3c1CCC3)CCCC2` [amiridine, cyclopenta[b]quinolin-9-amine, 2,3,5,6,7,8-hexahydro-,monohydrochloride], the IC50 is reported as 2.3 µM.

same assay, conditions: Mus musculus, Neuron

With `COc1ccc(-c2oc3c(CC=C(C)C)c(O[C@@H]4O[C@H](CO)[C@@H](O)[C@H](O)[C@H]4O)cc(O)c3c(=O)c2O[C@@H]2O[C@@H](C)[C@H](O)[C@@H](O)[C@H]2O)cc1` [icariin] the IC50 was 5.1 µM.

same assay, conditions: Mus musculus, Neuron; Aβ40 lowering; high priority hits confirmed from independent compound sources; read-out: IC50

Compound `NNCCc1ccccc1` [phenelzine sulfate] has an IC50 of 2.5 µM.

system: tau; test: Assay for tau: Western blot of tau isoforms in wild type mES cell-derived pyramidal neurons; format: cell-based, mouse; set-up: key: *: asterisk denotes hit compounds; conditions: 1 uM; treated at 14 DIV for 48 hr; Western blot (CP13, PHF)
Protocol: (§1) In certain embodiments, the inhibitor of the present invention is identified by an assay directed to detecting inhibitors of tau phosporylation. For example, but not by way of limitation, such assays can include assays such as those prepared as follows. First, wild type, mouse embryoinc stem cells are differentiated into pyramidal neurons using the protocol described in Example 1. ES cell-derived neurons are treated at 14 DIV for 48 hr with either vehicle (D, DMSO) or various histone demethylase inhibitors (inhibitor compounds 1-10). Tau isoforms are detected by Western blot analysis of the cell lysates using the indicated antibodies, See FIG. 11. CP13 recognizes tau phosphorylation at ser202/205. PHF recognizes tau phosphorylation at ser396/404. TUJ1 (Neuron-specific class III beta-tubulin) is used as a loading control.
as §1, with “Wild” for “In certain embodiments, the inhibitor of the present invention is identified by an assay directed to detecting inhibitors of tau phosporylation. For example, but not by way of limitation, such assays can include assays such as those prepared as follows. First, wild”, “were” for “are”
List of inhibitor compounds tested for their ability to inhibit levels of total tau, disease-associated phosphorylated or presence of modified forms of tau include (asterisk denotes hit compounds): *1. pargyline (LSD1 inhibitor)—1000 uM; *2. deprenyl (LSD1 inhibitor)—1000 uM; *3. propargyl (LSD1 inhibitor)—100 uM; 4. phenelzine (LSD1 inhibitor)—100 uM; 5. tranylcyprmine (LSD1 inhibitor)—200 uM; *6. S2101 (LSD1 Inhibitor II, EMD Biosciences catalog #489477)—LSD1 inhibitor—1 uM; 7. N-oxyalylglycine (NOG) (JMJD2s inhibitor)—1000 uM; *8. pyradine (JMJ2A and E inhibitor)—1000 uM; *9. disulfiram (JMJ2A inhibitor)—20 uM; *10. ebselen (JMJ2A inhibitor)—20 uM.

In the case of `NC1CC1c1cc(F)cc(F)c1OCc1ccccc1` (stereo not shown) [S2101], the “ability to inhibit levels of total tau, disease-associated phosphorylated or presence of modified forms of tau” value (shortened to “ability to inhibit levels of total tau”) is reported as “*”.

same assay, conditions: 20 uM; treated at 14 DIV for 48 hr; Western blot (CP13, PHF)

`CCN(CC)C(=S)SSC(=S)N(CC)CC` [disulfiram] was tested, and the “ability to inhibit levels of total tau” value was “*”.
`O=c1c2ccccc2[se]n1-c1ccccc1` [ebselen] was tested, and the “ability to inhibit levels of total tau” value was “*”.

same assay, conditions: 1000 uM; treated at 14 DIV for 48 hr; Western blot (CP13, PHF)

In the case of `C#CCN(C)[C@H](C)Cc1ccccc1` [deprenyl], the “ability to inhibit levels of total tau” value is reported as “*”.
For `C#CCN(C)Cc1ccccc1` [pargyline], the “ability to inhibit levels of total tau” value was “*”.
